# How the values were obtained:
# [1] = biological target: T1, progesterone receptor (Homo sapiens, UniProt P06401); experiment: Alkaline phosphatase activity in T47D cells (progestin antagonist mode); type: cell-based; conditions: in the presence of 1 nM progesterone, 24 h, read-out: T47D Alkaline Phosphatase Activity IC50 (nM) or % inhibition
# T1 construct: determining a compound's effect on alkaline phosphatase activity in T47D cells; endogenous in cells; host or cells: T47D cells
# T1 sequence (P06401 1-933): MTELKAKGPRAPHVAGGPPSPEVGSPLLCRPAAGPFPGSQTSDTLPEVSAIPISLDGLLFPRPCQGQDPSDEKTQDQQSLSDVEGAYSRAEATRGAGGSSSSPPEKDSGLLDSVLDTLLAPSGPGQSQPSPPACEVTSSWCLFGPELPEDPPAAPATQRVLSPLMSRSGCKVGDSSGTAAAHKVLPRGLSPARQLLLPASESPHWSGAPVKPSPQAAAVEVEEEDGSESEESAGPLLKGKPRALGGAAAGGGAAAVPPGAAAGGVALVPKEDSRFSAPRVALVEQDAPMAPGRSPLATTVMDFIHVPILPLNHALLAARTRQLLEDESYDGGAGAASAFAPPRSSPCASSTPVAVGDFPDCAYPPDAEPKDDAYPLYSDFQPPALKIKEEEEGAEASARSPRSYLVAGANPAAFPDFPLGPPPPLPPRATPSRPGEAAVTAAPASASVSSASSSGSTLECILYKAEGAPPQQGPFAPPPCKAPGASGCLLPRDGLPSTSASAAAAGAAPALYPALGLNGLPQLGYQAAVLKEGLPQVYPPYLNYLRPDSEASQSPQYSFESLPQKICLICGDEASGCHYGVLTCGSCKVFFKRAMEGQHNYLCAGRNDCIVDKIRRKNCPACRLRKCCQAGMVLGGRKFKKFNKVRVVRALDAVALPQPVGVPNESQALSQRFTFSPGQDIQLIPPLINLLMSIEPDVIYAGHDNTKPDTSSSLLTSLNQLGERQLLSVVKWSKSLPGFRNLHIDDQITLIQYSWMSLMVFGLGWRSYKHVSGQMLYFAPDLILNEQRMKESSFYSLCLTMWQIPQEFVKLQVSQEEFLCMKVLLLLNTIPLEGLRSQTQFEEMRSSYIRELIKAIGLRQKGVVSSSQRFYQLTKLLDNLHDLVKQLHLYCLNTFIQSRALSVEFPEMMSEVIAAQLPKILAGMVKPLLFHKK
# Experimental: (1) Effects of Progestins and Antiprogestins on Alkaline Phosphatase Activity in T47D Cells
# PURPOSE: To identify progestins or antiprogestins by determining a compound's effect on alkaline phosphatase activity in T47D cells.
# Culture medium: • DMEM:F12 (1:1) (GIBCO, BRL) supplemented with 5% (v/v) charcoal stripped fetal bovine serum (not heat-inactivated), 100 U/mL penicillin, 100 μg/mL streptomycin, and 2 mM the GlutaMax™ reagent (GIBCO, BRL).
# Alkaline phosphatase assay buffer: • I. 0.1M Tris-HCl, pH 9.8, containing 0.2% the Triton® X-100 reagent • II. 0.1M Tris-HCl, pH 9.8, containing 4 mM p-nitrophenyl phosphate (Sigma). B. Cell Culture and Treatment:
# Frozen T47D cells were thawed in a 37° C. water bath and diluted to 280,000 cells/mL in culture medium. To each well in a 96-well plate (Falcon, Becton Dickinson Labware), 180 μL of diluted cell suspension was added.
# Twenty μL of reference or test compounds diluted in the culture medium was then added to each well. When testing for progestin antagonist activity, reference antiprogestins or test compounds were added in the presence of 1 nM progesterone. The cells were incubated at 37° C. in a 5% CO2/humidified atmosphere for 24 h.
# NOTE: For high throughput screening, one concentration of each compound was tested at 0.3 μg/mL. Based on an average molecular weight of 300 g/mol for the compounds in the library, the concentration was approximately 1 μM. Subsequently, active compounds were tested in dose response assays to determine EC50 and IC50. C. Alkaline Phosphatase Enzyme Assay:
# At the end of treatment, the medium was removed from the plate. Fifty μL of assay buffer I was added to each well. The plates were shaken in a titer plate shaker for 15 min. Then 150 μL of assay buffer II was added to each well. Optical density measurements were taken at 5 min intervals for 30 min at a test wavelength of 405 nm.
# For reference and test compounds, a dose response curve was generated for dose (X-axis) vs. the rate of enzyme reaction (slope) (Y-axis). Square root-transformed data was used for analysis of variance and nonlinear dose response curve fitting for both agonist and antagonist modes. Huber weighting was used to down-weight the effects of outliers. EC50 or IC50 values were calculated from the retransformed values. JMP software (SAS Institute, Inc.) was used for both one-way analysis of variance and non-linear dose response analysis in both single dose and dose response studies.
# Progesterone and trimegestone were reference progestins and RU486 was the reference antiprogestin. All reference compounds were run in full dose response curves and the EC50 and IC50 values were calculated.
SMILES,IC50 [1] [nM],melting point [°C]
"CN1CCN(c2nc(-c3ccc(Br)cc3)cs2)C1=O [Example 5, 1-[4-(4-Bromophenyl)-1,3-thiazol-2-yl]-3-methylimidazolidin-2-one]",733,
"CN1CC(C)(C)N(c2nc(-c3ccc(C#N)cc3)cs2)C1=O [Example 8, 4-[2-(3,5,5-Trimethyl-2-oxoimidazolidin-1-yl)-1,3-thiazol-4-yl]benzonitrile]",35.4,
"CCC1(CC)COC(=O)N1c1nc(-c2ccc(C#N)cc2)cs1 [Example 2, 4-[2-(4,4-Diethyl-2-oxo-1,3-oxazolidin-3-yl)-1,3-thiazol-4-yl]benzonitrile]",,145 to 147
"O=C1NCCN1c1nc(-c2ccc(Br)cc2)cs1 [Example 4, 1-[4-(4-Bromophenyl)-1,3-thiazol-2-yl]imidazolidin-2-one]",1070,230 to 233
"CC1(C)COC(=O)N1c1nc(-c2cccc(C#N)c2)cs1 [Example 3, 3-[2-(4,4-dimethyl-2-oxo-1,3-oxazolidin-3-yl)-1,3-thiazol-4-yl]benzonitrile]",,181 to 183
"CC1(C)CN(Cc2ccccc2)C(=O)N1c1nc(-c2ccc(C#N)cc2)cs1 [Example 9, 4-[2-(3-Benzyl-5,5-dimethyl-2-oxoimidazolidin-1-yl)-1,3-thiazol-4-yl]benzonitrile]",77.9,
"C[C@@H]1COC(=O)N1c1nc(-c2ccc(Br)cc2)cs1 [Example 1, (4R)-3-[4-(4-Bromophenyl)-1,3-thiazol-2-yl]-4-methyl-1,3-oxazolidin-2-one]",,197 to 199
